“Also recorded” adds a separate entry of the source.
Experiments:
[1] = tested on: mice (BALB/c); experiment: Elevated plus maze (EPM), anxiety-like behavior
[2] = tested on: mice (BALB/c); experiment: Tail suspension test (TST), psilocybin loading dose then psilocybin+CBD+6 MB maintenance
[3] = psilocybin: loading dose 5 mg/kg alone, combination: given after the psilocybin loading dose

In the case of “[3-(2-dimethylaminoethyl)-1H-indol-4-yl] dihydrogen phosphate [psilocybin]”, the “percentage of time spent in open space (open arms of the EPM)” value ([1]; Day 14, two weeks after psilocybin loading dose 5 mg/kg, vs vehicle control, FIG. 2, 5 mg/kg) was “significantly increased; also recorded: more time”, the “anxiety in mouse models” value [1, 3] was “decreased” and the “immobile posture time in TST” value ([2]; Day 15, psilocybin loading dose 5 mg/kg on Day 1, FIG. 4A) was “decreased”. The “depression / depressive symptoms in mouse models” value [2, 3] was “decreased” and the “time spent immobile in TST” value ([2]; three weeks after 5 mg/kg loading dose of psilocybin (Day 22), loading dose only) was “significant decrease”.
